The source made the active and inactive calls. The calls are words filed in the database; no cut-off is given here.

Type in all cases: functional
What all share (conditions): for zone of inhibition at 5000 µg/mL: read-out: DIZ

In one test the test system is Bacillus subtilis. The test is described as follows: Antibacterial activity against gram-positive Bacillus subtilis at 5 mg/ml after 24 hrs by well diffusion method.
The test system of the next test is Bacillus mycoides. Briefly: Antibacterial activity against gram-positive Bacillus mycoides at 5 mg/ml after 24 hrs by well diffusion method. (A growth-free zone around the sample is the usual read-out of agar diffusion tests.)
Another test deals with Escherichia coli. The test is described as follows: Antibacterial activity against gram-negative Escherichia coli at 5 mg/ml after 24 hrs by well diffusion method.
Another test relates to Pseudomonas aeruginosa. Briefly: Antibacterial activity against gram-negative Pseudomonas aeruginosa at 5 mg/ml after 24 hrs by well diffusion method.

With `Cc1ccc(-c2c[nH]c3c2c(=O)n(C)c(=O)n3C)cc1`, the zone of inhibition at 5000 µg/mL with Bacillus subtilis came to 20 mm; in the test with Bacillus mycoides it was 12 mm; with Escherichia coli, 15 mm; in the test with Pseudomonas aeruginosa, 20 mm.

Take `Cn1c(=O)c2c(-c3ccc(Cl)cc3)c[nH]c2n(C)c1=O`: the “diameter of the inhibition zone (DIZ)” value with Bacillus subtilis, in the test with Bacillus mycoides, in the test with Escherichia coli and in the test with Pseudomonas aeruginosa was “inactive” in each case.

Regarding `Cn1c(=O)c2c(-c3ccc(O)cc3)c[nH]c2n(C)c1=O`, the “diameter of the inhibition zone (DIZ)” value in the test with Bacillus subtilis, in the test on Bacillus mycoides, in the test with Escherichia coli and with Pseudomonas aeruginosa was “inactive” in each case.

Consider `Cn1c(=O)c2c(-c3ccccc3)c[nH]c2n(C)c1=O`, for which the “diameter of the inhibition zone (DIZ)” value with Bacillus subtilis, in the test with Bacillus mycoides, with Escherichia coli and in the test with Pseudomonas aeruginosa was “inactive” throughout.

With `COc1ccc(-c2c[nH]c3c2c(=O)n(C)c(=O)n3C)cc1`, the “diameter of the inhibition zone (DIZ)” value in the test on Bacillus subtilis, in the test with Bacillus mycoides, with Escherichia coli and with Pseudomonas aeruginosa was “inactive” throughout.

In the case of `CN(C)c1ccc(-c2c[nH]c3c2c(=O)n(C)c(=O)n3C)cc1`, the zone of inhibition at 5000 µg/mL with Bacillus subtilis was found to be 15 mm; in the test with Bacillus mycoides, 12 mm; with Escherichia coli, 11 mm; in the test on Pseudomonas aeruginosa it was 20 mm.

With `Cn1c(=O)c2c(-c3cccc4ccccc34)c[nH]c2n(C)c1=O`, the zone of inhibition at 5000 µg/mL with Bacillus subtilis turned out to be 18 mm; in the test on Bacillus mycoides, 17 mm; in the test on Escherichia coli it was 14 mm; with Pseudomonas aeruginosa, 20 mm.

For the compound `Cn1c(=O)c2c(-c3cccs3)c[nH]c2n(C)c1=O`, the zone of inhibition at 5000 µg/mL turned out to be 20 mm in the test with Bacillus subtilis, 13 mm in the test with Bacillus mycoides, 13 mm in the test on Escherichia coli and 20 mm in the test with Pseudomonas aeruginosa.

Consider `Cn1c(=O)c2c(-c3ccco3)c[nH]c2n(C)c1=O`, for which the figures for the zone of inhibition at 5000 µg/mL in the test on Bacillus subtilis, with Escherichia coli and in the test on Pseudomonas aeruginosa were 20 mm, 12 mm and 18 mm, respectively. In addition, in the test with Bacillus mycoides, the “diameter of the inhibition zone (DIZ)” value is “inactive”.

Consider `Cn1c(=O)c2c(-c3c[nH]c4ccccc34)c[nH]c2n(C)c1=O`, for which the zone of inhibition at 5000 µg/mL in the test with Bacillus subtilis was found to be 20 mm; in the test with Escherichia coli it was 12 mm; with Pseudomonas aeruginosa, 20 mm. Besides, in the test with Bacillus mycoides, the “diameter of the inhibition zone (DIZ)” value is “inactive”.

These data come from ChEMBL document CHEMBL3751742, “A one pot, two-step synthesis of 5-arylpyrrolo[2,3-d]pyrimidines and screening of their preliminary antibacterial properties” (2016).
